Assay results reported in US20250263408A1 (Uniquest Pty Ltd, priority 2022, published 2025).

Legend:
[1] = target: T1, Ba/F3-Syk cells (Homo sapiens, UniProt P43405); experiment: Ba/F3 Proliferation Assay, Ba/F3-Syk cells (Resazurin); format: cell-based; conditions: 48-hour incubation
T1 construct: fused on or other part: Possible but unprinted fusion partner: TEL (ETV6), the usual partner for Ba/F3 lines transformed by Syk; Nothing on a partner is printed
Procedure: (§1) Ba/F3-Syk and Ba/F3-WT (wild type) cells were maintained at ≤1×10^6 cell/mL in RPMI (Life Technologies) with 10% FBS at 37° C. and 5% CO2 for a maximum of four weeks. Ba/F3-WT additionally contained 2 ng/mL mIL-3 (R&D Systems) to induce cellular growth. Cells were counted and dispensed at 5000 cells/well using a Multidrop Liquid Dispenser in a volume of 45 μL into black 384-well TC treated plates (Greiner) and incubated for four hours in complete media (+mIL-3 for Ba/F3-WT). Compounds were serially diluted in 100% DMSO, prior to an intermediate dilution in RPMI media. 5 μL of compound (0.4% final DMSO) was added to the cells, followed by a 48-hour incubation period. 5 μL of Resazurin (60 μM final) was then added and cells were incubated at 37° C. for three hours, before fluorescence (λex530/λem585) was measured using an Ensight Multimode Plate Reader (Perkin Elmer).

[2] = system: Ba/F3-WT (wild type) cells; experiment: Ba/F3 Proliferation Assay, Ba/F3-WT (wild type) cells with mIL-3 (Resazurin); format: cell-based; conditions: Ba/F3-WT cells +mIL-3, 48-hour incubation
Procedure: as §1

| Compound | EC50 [1] | EC50 ([2]; Mus musculus, BaF3, 48 h) | EC50 [2] |
| --- | --- | --- | --- |
| CC(C)(C)n1cc(-c2cc3ncccc3c(OC[C@@H]3CNCC(F)(F)CO3)n2)cn1 [Compound 2.86, 7-(1-tert-butyl-1H-pyrazol-4-yl)-5-{[(2S)-6,6-difluoro-1,4-oxazepan-2-yl]methoxy}-1,6-naphthyridine] | 2160 nM | > 10000 nM | – |
| Cn1cc(-c2cc(OC[C@@H]3CNCCO3)c3cccnc3c2)cn1 [Compound 2, 7-(1-methyl-1H-pyrazol-4-yl)-5-{[(2S)-morpholin-2-yl]methoxy}quinoline] | 166 nM | 2430 nM | – |
| O=C1CCn2cc(-c3cc(OC[C@@H]4CNCCO4)c4cccnc4c3)cc21 [Compound 3, 6-(5-{[(2S)-morpholin-2-yl]methoxy}quinolin-7-yl)-2,3-dihydro-1H-pyrrolizin-1-one] | 162 nM | 1950 nM | – |
| C[C@@H](Oc1nc(-c2ccn(C(C)(C)C)c2)cc2ncccc12)[C@@H]1CNCCO1 [Compound 2.68, 7-(1-tert-butyl-1H-pyrrol-3-yl)-5-[(1R)-1-[(2S)-morpholin-2-yl]ethoxy]-1,6-naphthyridine] | 13.9 nM | 4370 nM | – |
| Cc1ccnc2cc(-c3cnn(C(C)C)c3)cc(OC[C@@H]3CNCC(C)(C)O3)c12 (stereo in doubt) [Compound 14.7, 5-[(6,6-dimethylmorpholin-2-yl)methoxy]-4-methyl-7-[1-(propan-2-yl)-1H-pyrazol-4-yl]quinoline] | 2.4 nM | 930 nM | – |
| c1cnc2cc(-c3cnn(C4CC4)c3)cc(OC[C@@H]3CNCCO3)c2c1 [Compound 3.3, 7-(1-cyclopropyl-1H-pyrazol-4-yl)-5-{[(2S)-morpholin-2-yl]methoxy} quinoline] | 179 nM | 2590 nM | – |
| Cn1cc(-c2cc(OC[C@@H]3CNCCO3)c3cncnc3c2)cn1 [Compound 4.1, 7-(1-methyl-1H-pyrazol-4-yl)-5-{[(2S)-morpholin-2-yl]methoxy} quinazoline] | 2320 nM | 7430 nM | – |
| CC(C)n1cc(-c2cc(O[C@H](C)[C@@H]3CNCC(C)(C)O3)c3cccnc3c2)cn1 [Compound 11.3, 5-[(1R)-1-[(2S)-6,6-dimethylmorpholin-2-yl]ethoxy]-7-[1-(propan-2-yl)-1H-pyrazol-4-yl]quinoline] | 37.5 nM | 558 nM | – |
| CCn1ccc(-c2cc3ncccc3c(OC[C@@H]3CNCCO3)n2)c1 [Compound 6.1, 7-(1-ethyl-1H-pyrrol-3-yl)-5-{[(2S)-morpholin-2-yl]methoxy}-1,6-naphthyridine] | 38.8 nM | 2660 nM | – |
| c1cnc2cc(-c3ccn[nH]3)nc(OC[C@@H]3CNCCO3)c2c1 [Compound 2.28, 5-{[(2S)-morpholin-2-yl]methoxy}-7-(1H-pyrazol-5-yl)-1,6-naphthyridine] | 734 nM | > 10000 nM | – |
| C[C@H](Oc1cc(-c2cnn(C(C)(C)C)c2)cc2ncccc12)[C@@H]1CNCCO1 [Compound 14.1, 7-(1-tert-butyl-1H-pyrazol-4-yl)-5-[(1S)-1-[(2S)-morpholin-2-yl]ethoxy]quinoline] | 1340 nM | > 10000 nM | – |
| C[C@@H](Oc1nc(-c2ccn(C)c2)cc2ncccc12)[C@@H]1CNCC(C)(C)O1 [Compound 2.65, 5-[(1R)-1-[(2S)-6,6-dimethylmorpholin-2-yl]ethoxy]-7-(1-methyl-1H-pyrrol-3-yl)-1,6-naphthyridine] | 11.7 nM | 2540 nM | – |
| CC(C)n1cc(-c2cc(OC[C@@H]3CNCC4(CC4)O3)c3nccnc3c2)cn1 [Compound 12.2, 5-{[(5S)-4-oxa-7-azaspiro[2.5]octan-5-yl]methoxy}-7-[1-(propan-2-yl)-1H-pyrazol-4-yl]quinoxaline] | 29.1 nM | 1620 nM | – |
| CC[C@@H](C)n1cc(-c2cc3ncccc3c(OC[C@@H]3CNCCO3)n2)cn1 [Compound 6.32, 7-{1-[(2R)-butan-2-yl]-1H-pyrazol-4-yl}-5-{[(2S)-morpholin-2-yl]methoxy}-1,6-naphthyridine] | 92 nM | 2020 nM | – |
| FC(F)Cn1cc(-c2cc3ncccc3c(OC[C@@H]3CNCCO3)n2)cn1 [Compound 6.6, 7-[1-(2,2-difluoroethyl)-1H-pyrazol-4-yl]-5-{[(2S)-morpholin-2-yl]methoxy}-1,6-naphthyridine] | 81.9 nM | 1920 nM | – |
| CC(C)n1ccc(-c2cc(OC[C@@H]3CNCC4(CC4)O3)c3nccnc3c2)c1 [Compound 8.2, 5-{[(5S)-4-oxa-7-azaspiro[2.5]octan-5-yl]methoxy}-7-[1-(propan-2-yl)-1H-pyrrol-3-yl]quinoxaline] | 22.1 nM | 614 nM | – |
| C[C@@H](Oc1cc(-c2cnn(C(C)(C)C)c2)cc2ncccc12)[C@@H]1CNCCO1 [Compound 14.2, 7-(1-tert-butyl-1H-pyrazol-4-yl)-5-[(1R)-1-[(2S)-morpholin-2-yl]ethoxy]quinoline] | 81.8 nM | 1880 nM | – |

| Compound | EC50 [1] | EC50 ([2]; Mus musculus, BaF3, 48 h) | EC50 [2] |
| --- | --- | --- | --- |
| c1cnc2cc(-c3ccns3)nc(OC[C@@H]3CNCCO3)c2c1 [Compound 13.1, 5-{[(2S)-morpholin-2-yl]methoxy}-7-(1,2-thiazol-5-yl)-1,6-naphthyridine] | 586 nM | 6360 nM | – |
| C[C@@H]1CNC[C@@H](COc2cc(-c3cnn(C)c3)cc3nccnc23)O1 [Compound 12.5, 7-(1-methyl-1H-pyrazol-4-yl)-5-{[(2S,6R)-6-methylmorpholin-2-yl]methoxy}quinoxaline] | 50.9 nM | 1300 nM | – |
| CCn1ccc(-c2cc3ncccc3c(O[C@H](C)[C@@H]3CNCCO3)n2)c1 [Compound 6.31, 7-(1-ethyl-1H-pyrrol-3-yl)-5-[(1R)-1-[(2S)-morpholin-2-yl]ethoxy]-1,6-naphthyridine] | 49.4 nM | 3340 nM | – |
| Cc1noc(C)c1-c1cc2ncccc2c(OC[C@@H]2CNCCO2)n1 [Compound 2.14, 7-(3,5-dimethyl-1,2-oxazol-4-yl)-5-{[(2S)-morpholin-2-yl]methoxy}-1,6-naphthyridine] | 3620 nM | 4830 nM | – |
| Cn1ccc(-c2cc3ncccc3c(OCC3CNCCCO3)n2)c1 (centres unmarked) [Compound 2.48, 7-(1-methyl-1H-pyrrol-3-yl)-5-[(1,4-oxazepan-2-yl)methoxy]-1,6-naphthyridine] | 119 nM | 4060 nM | – |
| 5-{[(2R)-6,6-dimethylmorpholin-2-yllmethoxy}-7-[1-(3-methyloxolan-3-yl)-1H-pyrazol-4-yl]-1,6-naphthyridine [Compound 10.13] | 90.9 nM | – | 3210 nM |
| C[C@@H](Oc1cc(-c2ccn(C)c2)cc2ncccc12)[C@@H]1CNCC(C)(C)O1 [Compound 11.5, 5-[(1R)-1-[(2S)-6,6-dimethylmorpholin-2-yl]ethoxy]-7-(1-methyl-1H-pyrrol-3-yl)quinoline] | 90.6 nM | 1850 nM | – |
| c1cnc2cc(-c3cc4n(c3)CCC4)cc(OC[C@@H]3CNCCO3)c2c1 [Compound 4, 7-(2,3-dihydro-1H-pyrrolizin-6-yl)-5-{[(2S)-morpholin-2-yl]methoxy}quinoline] | 87.7 nM | 7210 nM | – |
| c1cnc2cc(-c3cnn(CC4CC4)c3)nc(OC[C@@H]3CNCCO3)c2c1 [Compound 6.12, 7-[1-(cyclopropylmethyl)-1H-pyrazol-4-yl]-5-{[(2S)-morpholin-2-yl]methoxy}-1,6-naphthyridine] | 66.7 nM | 994 nM | – |
| C1=C(c2cc(OC[C@@H]3CNCCO3)c3cccnc3c2)CCC1 [Compound 11.1, 7-(cyclopent-1-en-1-yl)-5-{[(2S)-morpholin-2-yl]methoxy}quinoline] | 1360 nM | > 10000 nM | – |
| Cn1ccc(-c2cc3ncccc3c(O[C@@H]([C@@H]3CNCCO3)C(F)(F)F)n2)c1 [Compound 13.3, 7-(1-methyl-1H-pyrrol-3-yl)-5-[(1S)-2,2,2-trifluoro-1-[(2S)-morpholin-2-yl]ethoxy]-1,6-naphthyridine] | 1210 nM | > 10000 nM | – |
| C[C@@H](Oc1cc(-c2ccn(C)c2)cc2ncccc12)[C@@H]1CNCCO1 [Compound 11.10, 7-(1-methyl-1H-pyrrol-3-yl)-5-[(1R)-1-[(2S)-morpholin-2-yl]ethoxy]quinoline] | 121 nM | 1700 nM | – |
| FC(F)c1cc(-c2cc(OC[C@@H]3CNCCO3)c3cccnc3c2)cs1 [Compound 14.3, 7-[5-(difluoromethyl)thiophen-3-yl]-5-{[(2S)-morpholin-2-yl]methoxy}quinoline] | 176 nM | 1920 nM | – |
| CC(C)(C)n1cc(-c2cc3ncccc3c(OC[C@H]3O[C@H]4CCN[C@@H]3C4)n2)cn1 (single isomer, unassigned) [Compound 13.12] | 74.4 nM | – | > 5000 nM |
| CC1(C)CNC[C@@H](COc2cc(-c3cnn(C(F)F)c3)cc3ncccc23)O1 [Compound 3.11, 7-[1-(difluoromethyl)-1H-pyrazol-4-yl]-5-{[(2S)-6,6-dimethylmorpholin-2-yl]methoxy}quinoline] | 163 nM | 2140 nM | – |
| Cc1ncc(-c2cc3ncccc3c(OC[C@@H]3CNCCO3)n2)s1 [Compound 2.30, 7-(2-methyl-1,3-thiazol-5-yl)-5-{[(2S)-morpholin-2-yl]methoxy}-1,6-naphthyridine] | 206 nM | 6970 nM | – |
| CC[C@@H](C)n1ccc(-c2cc(OC[C@@H]3CNCCO3)c3nccnc3c2)c1 [Compound 8.24, 7-{1-[(2R)-butan-2-yl]-1H-pyrrol-3-yl}-5-{[(2S)-morpholin-2-yl]methoxy}quinoxaline] | 12.9 nM | > 1000 nM | – |
